Residues, ends and D or L forms follow the SMILES beside them. *: point of attachment. Cbz = O=C(OCc1ccccc1)*; CH2F = FC*
Assays:
AML leukemic cells = assay: Apotosis/Cytostasis Arm with kinase inhibitors (Example 13); assay type: cell-based, human; conditions: two samples with greatest SCF and G-CSF signaling response; 1 μM; 48-hr incubation
Description: All results were compared with results from bone marrow samples from healthy donors (N=6).

AML blasts = assay: SCNP functional apoptosis and DNA damage response assay in AML PBMC (Examples 2, 6, 8, 10); assay type: cell-based, human; conditions: with staurosporine or etoposide
Description: A viable cell will be Aqua negative and PARP negative and a measure of cell death is PARP and/or Aqua positivity.
“Apoptosis”=% of PARP^−Aqua^−unstim−% of PARP^−Aqua^−Drug.
Functional assays were performed as previously described. See Irish, et al., Cell 2004; 118:217-228.
The median fluorescence intensity (MFI) was computed for each node from the fluorescence intensity levels for the cells in the myeloid population. The MFI values were then used to compute a variety of metrics by comparing them to baseline or background values, including the unmodulated condition, cellular autofluorescence and antibody isotype controls. The following metrics were computed: • 1. Basal MFI (“Basal”)=log2(MFIUnmodulated Stained)−log2(MFIGated Unstained (Autofluoresence)), designed to measure the basal levels of a certain protein under unmodulated conditions. • 2. Fold Change MFI (“Fold”)=log2(MFIModulated Stained)−log2(MFIUnmodulated Stained), a measure of the change in the activation state of a protein under modulated conditions. • 3. Total Phospho MFI (“TotalPhospho”)=log2(MFIModulated Stained)−log2(MFIGated Unstained (Autofluorescence)), a measure of the total levels of a protein under modulated conditions. • 4. Relative Protein Expression (“Rel. Expression”)=log2(MFIstain)−log2(MFIControl), a measure of the levels of surface marker staining relative to control antibody staining • 5. […]

Compound	sensitivity to kinase inhibitor, cytostasis readouts (AML leukemic cells)	effect of co-incubation with pan-Caspase inhibitor on Cleaved Caspase-3 and PARP (AML blasts; samples 0341, 0521)	effect of co-incubation with pan-Caspase inhibitor on PARP cleavage (AML blasts; samples 8303, 8402)
C[C@@H]1CCN(C(=O)CC#N)C[C@@H]1N(C)c1ncnc2[nH]ccc12 [CP-690,550]	most sensitive	–	–
COC(=O)CC(NC(=O)C(C)NC(=O)C(NC(=O)OCc1ccccc1)C(C)C)C(=O)CF (stereo not drawn) [Z-VAD, Benzyloxycarbonyl-Val-Ala-Asp (OMe) fluoromethylketone] (Cbz-Val-Ala-Asp(OMe)-CH2F; configuration not given here)	–	inhibited cleavage of caspase 3 and PARP to near completion	only partially inhibited

Source: patent US20160223554A1, “METHODS FOR DIAGNOSIS, PROGNOSIS AND METHODS OF TREATMENT” (priority 2011, published 2016)
